The record followed here is patent US11884671B2, “Purinone compounds and their use in treating cancer” (ASTRAZENECA AB, priority 2018, dated 2024).

One series addresses DNAPK (Homo sapiens (Human), UniProt P78527). The experiment in a line: DNAPK cellular potency assay (DNA-PK cell), pS2056-DNAPK ELISA in irradiated A549 cells. The series is classed as cell-based. The settings on record: 8 Gy radiation, arithmetic mean of two or more experiments, read-out: DNA-PK cell pIC50 (converted). As to the method: The DNAPK cell ELISA assay was performed in the A549 cell line. A549 cells were cultured in cell media composed of MEM-F12 (Minimum Essential Medium F12 Sigma #D6421), 10% (v/v) Foetal Calf Serum and 1% (v/v) 200 mM L-Glutamine. […] The following day the Greiner ELISA plates were washed 3× with PBS-T and blocked with 3% BSA/PBS for 2 h, before a further 3× wash with PBS-T.
The cell plates were then incubated for 1 h at 37° C. before receiving a radiation dose of 8 Gy (XRAD 320, table height 65). The cells were incubated for a further 1 h before removal of cell media. […] Cell lysates ([…]) were transferred to the DNAPK antibody-coated ELISA plates using a CyBio Felix liquid handling platform, and ELISA plates were incubated at 4° C. overnight.
The following day, ELISA plates were washed 3× with PBS-T and dispensed with in-house pS2056-DNAPK antibody (0.5 μg/mL in 3% BSA/PBS) at 20 ul/well.
The fluorescence intensity of individual wells was determined using a PerkinElmer EnVision plate reader.
Data was analysed and IC50 values were calculated using Genedata Screener® software (Genedata, Inc., Basel, Switzerland).
(In general: An ELISA detects its analyte on a solid surface through an enzyme-linked reagent.)

Another series concerns the target TTK (Homo sapiens (Human), UniProt P33981). Briefly: TTK enzyme assay (LanthaScreen Eu Kinase Binding). Particulars: arithmetic mean of two or more experiments. The protocol:
The inhibitory activity of compounds against TTK was determined in a LanthaScreen® Eu Kinase Binding assay run by ThermoFisher Scientific as part of their SelectScreen® Biochemical Kinase Profiling Service. The LanthaScreen® Eu Kinase Binding assay format uses binding of an Alexa Fluor® conjugate or “tracer” to a kinase, which is detected by addition of a Eu-labeled anti-tag antibody. […] The degree of FRET measured in the assay is used to determine the binding of a compound.
(§1) 10 point three-fold dilution compound concentration-response curves, with a top concentration of 10 μM were generated from 10 mM stocks of compound solubilised in DMSO. All assays were performed in white, low volume Greiner 384-well plates (cat. #784207, Greiner), in a total reaction volume of 16 μL and 1% (v/v) final DMSO concentration. […] Plates were then read using a fluorescence plate reader. IC50 values were calculated using XLfit software (IDBS Ltd, Surrey, UK), with the curve fit to model number 205 (sigmoidal dose-response model).
(Time-resolved FRET reads energy transfer from a long-lived donor to a nearby acceptor.)

A further series addresses JAK1 (Homo sapiens (Human), UniProt P23458). Briefly: JAK1 enzyme assay (Z'-LYTE). It is filed as biochemical. Particulars: 75 μM ATP; arithmetic mean of two or more experiments. The protocol:
(§2) The inhibitory activity of compounds against AURKA, AURKB, JAK1, JAK2 and JAK3 was determined in Z′-LYTE® assays run by ThermoFisher Scientific as part of their SelectScreen® Biochemical Kinase Profiling Service. The Z′-LYTE® biochemical assay format employs a fluorescence-based, coupled-enzyme format and is based on the differential sensitivity of phosphorylated and non-phosphorylated peptides to proteolytic cleavage. The peptide substrate is labeled with two fluorophores—one at each end—that make up a FRET pair. In the primary reaction, the kinase transfers the gamma-phosphate of ATP to a single tyrosine, serine or threonine residue in a synthetic FRET-peptide. In the secondary reaction, a site-specific protease recognises and cleaves non-phosphorylated FRET-peptides. Phosphorylation of FRET-peptides suppresses cleavage by the Development Reagent. Cleavage disrupts FRET between the donor (i.e., coumarin) and acceptor (i.e., fluorescein) fluorophores on the FRET-peptide, whereas uncleaved, phosphorylated FRET-peptides maintain FRET. A ratiometric method, which calculates the ratio (the Emission Ratio) of donor emission to acceptor emission after excitation of the donor fluorophore at 400 nm, is used to quantitate reaction progress. Both cleaved and uncleaved FRET-peptides contribute to the fluorescence signals and therefore to the Emission Ratio. The extent of phosphorylation of the FRET-peptide can be calculated from the Emission Ratio.
as §1, with “black, non-binding,” for “white,”, “Corning” for “Greiner”, “#4514, Corning),” for “#784207, Greiner),”, “10” for “16”, “The kinase reaction was” for “Plates were”, “quenched by the addition of 5 μL of Development Reagent (ThermoFisher Scientific proprietary). […]” for “read using a fluorescence plate reader.”
JAK1: The 2×JAK/Tyr 06 (ThermoFisher Scientific proprietary) mixture was prepared in 50 mM HEPES pH 6.5, 0.01% BRIJ-35, 10 mM MgCl2, 1 mM EGTA, 0.02% NaN3. […] After the 1 hour Kinase Reaction incubation, 5 μL of a 1:128 dilution of Development Reagent was added.

A further series addresses JAK2 (Homo sapiens (Human), UniProt O60674). The experiment in a line: JAK2 enzyme assay (Z'-LYTE). The series is classed as biochemical. Particulars: 25 μM ATP; arithmetic mean of two or more experiments. As to the method: as §2
as §1, with “black, non-binding,” for “white,”, “Corning” for “Greiner”, “#4514, Corning),” for “#784207, Greiner),”, “10” for “16”, “The kinase reaction was” for “Plates were”, “quenched by the addition of 5 μL of Development Reagent (ThermoFisher Scientific proprietary). […]” for “read using a fluorescence plate reader.”
JAK2: The 2×JAK2/Tyr 06 (ThermoFisher Scientific proprietary) mixture was prepared in 50 mM HEPES pH 7.5, 0.01% BRIJ-35, 10 mM MgCl2, 1 mM EGTA. […] After the 1 hour Kinase Reaction incubation, 5 μL of a 1:128 dilution of Development Reagent was added.

A further series addresses JAK3 (Homo sapiens (Human), UniProt P52333). The experiment in a line: JAK3 enzyme assay (Z'-LYTE). The series is classed as biochemical. Particulars: 10 μM ATP; arithmetic mean of two or more experiments. The protocol:
as §2
as §1, with “black, non-binding,” for “white,”, “Corning” for “Greiner”, “#4514, Corning),” for “#784207, Greiner),”, “10” for “16”, “The kinase reaction was” for “Plates were”, “quenched by the addition of 5 μL of Development Reagent (ThermoFisher Scientific proprietary). […]” for “read using a fluorescence plate reader.”
JAK3: The 2×JAK3/Tyr 06 (ThermoFisher Scientific proprietary) mixture was prepared in 50 mM HEPES pH 7.5. 0.01% BRIJ-35, 10 mM MgCl2, 1 mM EGTA. […] After the 1 hour Kinase Reaction incubation, 5 μL of a 1:128 dilution of Development Reagent was added.

Another series deals with AURKA (Aurora A) (Homo sapiens (Human), UniProt O14965). Briefly: Aurora-A enzyme assay (Z'-LYTE). Particulars: 10 μM ATP; arithmetic mean of two or more experiments. The series is classed as biochemical. The protocol:
as §2
as §1, with “black, non-binding,” for “white,”, “Corning” for “Greiner”, “#4514, Corning),” for “#784207, Greiner),”, “10” for “16”, “The kinase reaction was” for “Plates were”, “quenched by the addition of 5 μL of Development Reagent (ThermoFisher Scientific proprietary). […]” for “read using a fluorescence plate reader.”
Aurora A (AurA): The 2×AURKA (Aurora A)/Ser/Thr 01 (ThermoFisher Scientific proprietary) mixture was prepared in 50 mM HEPES pH 7.5, 0.01% BRIJ-35, 10 mM MgCl2, 1 mM EGTA. […] After the 1 hour Kinase Reaction incubation, 5 μL of a 1:4096 dilution of Development Reagent was added.

In a further series the target is AURKB (Aurora B) (Homo sapiens (Human), UniProt Q96GD4). Briefly: Aurora-B enzyme assay (Z'-LYTE). It is filed as biochemical. Particulars: 75 μM ATP; arithmetic mean of two or more experiments. The protocol:
as §2
as §1, with “black, non-binding,” for “white,”, “Corning” for “Greiner”, “#4514, Corning),” for “#784207, Greiner),”, “10” for “16”, “The kinase reaction was” for “Plates were”, “quenched by the addition of 5 μL of Development Reagent (ThermoFisher Scientific proprietary). […]” for “read using a fluorescence plate reader.”
Aurora B (AurB): The 2×AURKB (Aurora B)/Ser/Thr 01 (ThermoFisher Scientific proprietary) mixture was prepared in 50 mM HEPES pH 7.5, 0.01% BRIJ-35, 10 mM MgCl2, 1 mM EGTA. […] After the 1 hour Kinase Reaction incubation, 5 μL of a 1:4096 dilution of Development Reagent was added.

A short description of a further series: Discrete PK Rat. The series is classed as in vivo, han wistar rats. Particulars: Han Wistar, plasma, iv, read-out: volume of distribution (V).
A short description of another series: Discrete PK Dog. The settings on record: beagle, iv, 0.5 mg/kg.

Chain of JAK2 (O60674 whole entry): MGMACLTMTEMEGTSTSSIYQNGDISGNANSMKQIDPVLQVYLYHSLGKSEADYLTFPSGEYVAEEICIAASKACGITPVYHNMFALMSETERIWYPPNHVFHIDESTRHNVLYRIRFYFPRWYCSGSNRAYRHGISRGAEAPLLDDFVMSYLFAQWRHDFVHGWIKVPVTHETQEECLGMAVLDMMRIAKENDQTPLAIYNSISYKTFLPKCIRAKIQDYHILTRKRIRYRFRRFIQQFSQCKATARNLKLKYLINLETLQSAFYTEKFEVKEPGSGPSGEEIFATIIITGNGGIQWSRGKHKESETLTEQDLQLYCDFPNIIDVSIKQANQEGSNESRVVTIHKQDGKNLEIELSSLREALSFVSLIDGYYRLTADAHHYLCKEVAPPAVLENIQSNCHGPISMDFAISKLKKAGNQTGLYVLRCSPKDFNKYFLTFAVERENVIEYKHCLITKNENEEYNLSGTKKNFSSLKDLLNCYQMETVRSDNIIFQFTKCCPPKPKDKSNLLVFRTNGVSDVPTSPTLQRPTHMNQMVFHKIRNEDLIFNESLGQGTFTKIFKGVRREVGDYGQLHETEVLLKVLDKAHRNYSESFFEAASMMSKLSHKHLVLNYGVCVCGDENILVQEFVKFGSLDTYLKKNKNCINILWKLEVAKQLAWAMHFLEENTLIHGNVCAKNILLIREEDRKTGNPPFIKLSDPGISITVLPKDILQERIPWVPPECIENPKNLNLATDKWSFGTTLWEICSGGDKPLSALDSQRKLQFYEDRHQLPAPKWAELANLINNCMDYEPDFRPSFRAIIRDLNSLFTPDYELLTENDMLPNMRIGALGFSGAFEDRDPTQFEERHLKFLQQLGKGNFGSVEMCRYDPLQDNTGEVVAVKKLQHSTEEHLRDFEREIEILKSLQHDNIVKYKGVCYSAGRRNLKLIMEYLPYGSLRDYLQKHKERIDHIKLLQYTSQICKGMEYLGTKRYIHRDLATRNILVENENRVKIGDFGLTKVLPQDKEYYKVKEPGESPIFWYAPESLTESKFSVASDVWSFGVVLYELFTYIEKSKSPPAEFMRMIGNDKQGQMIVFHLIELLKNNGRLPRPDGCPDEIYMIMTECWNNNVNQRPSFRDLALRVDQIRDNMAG
Chain of AURKA (Aurora A) (O14965 whole entry): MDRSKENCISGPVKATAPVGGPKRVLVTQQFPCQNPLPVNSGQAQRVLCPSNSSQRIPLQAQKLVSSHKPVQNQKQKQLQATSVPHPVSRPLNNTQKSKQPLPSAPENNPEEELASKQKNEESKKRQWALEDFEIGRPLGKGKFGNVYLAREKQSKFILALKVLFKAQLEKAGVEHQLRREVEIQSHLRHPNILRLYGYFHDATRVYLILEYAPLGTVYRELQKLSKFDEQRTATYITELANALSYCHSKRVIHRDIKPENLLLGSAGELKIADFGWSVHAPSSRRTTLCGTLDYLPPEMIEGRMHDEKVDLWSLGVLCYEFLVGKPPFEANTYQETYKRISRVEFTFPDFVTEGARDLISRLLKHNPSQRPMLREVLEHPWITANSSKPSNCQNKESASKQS
Chain of TTK (P33981 whole entry): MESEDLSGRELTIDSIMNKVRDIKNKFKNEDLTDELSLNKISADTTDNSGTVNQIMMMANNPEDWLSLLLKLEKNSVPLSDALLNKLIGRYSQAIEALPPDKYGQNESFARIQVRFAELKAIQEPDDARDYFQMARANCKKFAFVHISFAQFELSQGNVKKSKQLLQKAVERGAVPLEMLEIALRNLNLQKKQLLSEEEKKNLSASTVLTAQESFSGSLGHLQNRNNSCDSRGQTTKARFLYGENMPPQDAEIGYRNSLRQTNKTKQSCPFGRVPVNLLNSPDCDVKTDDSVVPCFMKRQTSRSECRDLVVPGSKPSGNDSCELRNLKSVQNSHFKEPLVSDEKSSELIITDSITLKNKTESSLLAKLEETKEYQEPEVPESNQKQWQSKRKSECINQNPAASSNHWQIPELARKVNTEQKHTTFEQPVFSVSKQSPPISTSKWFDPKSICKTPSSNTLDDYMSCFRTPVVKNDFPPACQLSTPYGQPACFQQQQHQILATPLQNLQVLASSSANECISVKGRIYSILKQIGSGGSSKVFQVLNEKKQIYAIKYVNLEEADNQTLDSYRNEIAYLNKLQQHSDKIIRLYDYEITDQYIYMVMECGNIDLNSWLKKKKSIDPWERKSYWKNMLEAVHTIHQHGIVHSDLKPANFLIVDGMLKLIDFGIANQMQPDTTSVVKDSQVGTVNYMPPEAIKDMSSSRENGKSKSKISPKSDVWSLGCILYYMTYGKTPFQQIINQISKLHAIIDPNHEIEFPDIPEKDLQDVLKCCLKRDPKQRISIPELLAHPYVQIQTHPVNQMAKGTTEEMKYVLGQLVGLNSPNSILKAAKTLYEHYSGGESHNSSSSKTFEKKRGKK
Chain of AURKB (Aurora B) (Q96GD4 whole entry): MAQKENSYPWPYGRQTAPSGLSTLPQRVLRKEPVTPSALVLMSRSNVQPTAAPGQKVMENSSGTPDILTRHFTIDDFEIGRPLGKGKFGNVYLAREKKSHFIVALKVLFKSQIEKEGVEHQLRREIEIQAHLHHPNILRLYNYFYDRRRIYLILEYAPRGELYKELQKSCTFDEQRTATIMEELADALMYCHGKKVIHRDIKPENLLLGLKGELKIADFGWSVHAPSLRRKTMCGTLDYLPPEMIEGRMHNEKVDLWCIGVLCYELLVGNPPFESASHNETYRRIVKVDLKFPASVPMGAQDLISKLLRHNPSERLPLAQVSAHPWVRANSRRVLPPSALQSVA
Chain of JAK1 (P23458 whole entry): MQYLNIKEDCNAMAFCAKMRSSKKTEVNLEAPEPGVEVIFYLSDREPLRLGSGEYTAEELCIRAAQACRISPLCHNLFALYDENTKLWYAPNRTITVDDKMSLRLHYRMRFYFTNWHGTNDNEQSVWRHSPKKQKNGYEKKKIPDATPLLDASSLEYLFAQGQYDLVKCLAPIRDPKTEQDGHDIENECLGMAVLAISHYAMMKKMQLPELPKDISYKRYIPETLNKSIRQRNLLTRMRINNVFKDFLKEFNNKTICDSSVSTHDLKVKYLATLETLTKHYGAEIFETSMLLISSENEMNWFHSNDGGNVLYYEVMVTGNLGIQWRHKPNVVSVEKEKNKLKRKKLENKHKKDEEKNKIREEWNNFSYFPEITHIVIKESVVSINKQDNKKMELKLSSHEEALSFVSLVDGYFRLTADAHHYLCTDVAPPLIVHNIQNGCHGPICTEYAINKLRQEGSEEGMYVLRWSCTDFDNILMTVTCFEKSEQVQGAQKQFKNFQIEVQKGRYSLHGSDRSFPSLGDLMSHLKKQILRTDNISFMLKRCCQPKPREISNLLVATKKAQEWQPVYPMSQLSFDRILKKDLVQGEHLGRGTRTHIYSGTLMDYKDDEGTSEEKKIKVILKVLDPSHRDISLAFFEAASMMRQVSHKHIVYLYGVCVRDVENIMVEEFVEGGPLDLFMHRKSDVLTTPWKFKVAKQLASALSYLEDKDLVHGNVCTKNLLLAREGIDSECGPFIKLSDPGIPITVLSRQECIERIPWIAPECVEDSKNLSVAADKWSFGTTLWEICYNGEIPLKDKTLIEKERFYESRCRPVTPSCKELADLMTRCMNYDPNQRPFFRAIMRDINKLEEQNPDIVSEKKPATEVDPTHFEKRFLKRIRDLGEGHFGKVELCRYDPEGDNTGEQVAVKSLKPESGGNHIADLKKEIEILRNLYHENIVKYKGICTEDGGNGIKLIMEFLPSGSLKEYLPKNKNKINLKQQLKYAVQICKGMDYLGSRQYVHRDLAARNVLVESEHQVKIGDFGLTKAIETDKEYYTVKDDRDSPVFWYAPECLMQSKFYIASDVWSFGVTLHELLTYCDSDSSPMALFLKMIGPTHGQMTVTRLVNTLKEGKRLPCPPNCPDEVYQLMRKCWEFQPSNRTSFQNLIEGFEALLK
Chain of JAK3 (P52333 whole entry): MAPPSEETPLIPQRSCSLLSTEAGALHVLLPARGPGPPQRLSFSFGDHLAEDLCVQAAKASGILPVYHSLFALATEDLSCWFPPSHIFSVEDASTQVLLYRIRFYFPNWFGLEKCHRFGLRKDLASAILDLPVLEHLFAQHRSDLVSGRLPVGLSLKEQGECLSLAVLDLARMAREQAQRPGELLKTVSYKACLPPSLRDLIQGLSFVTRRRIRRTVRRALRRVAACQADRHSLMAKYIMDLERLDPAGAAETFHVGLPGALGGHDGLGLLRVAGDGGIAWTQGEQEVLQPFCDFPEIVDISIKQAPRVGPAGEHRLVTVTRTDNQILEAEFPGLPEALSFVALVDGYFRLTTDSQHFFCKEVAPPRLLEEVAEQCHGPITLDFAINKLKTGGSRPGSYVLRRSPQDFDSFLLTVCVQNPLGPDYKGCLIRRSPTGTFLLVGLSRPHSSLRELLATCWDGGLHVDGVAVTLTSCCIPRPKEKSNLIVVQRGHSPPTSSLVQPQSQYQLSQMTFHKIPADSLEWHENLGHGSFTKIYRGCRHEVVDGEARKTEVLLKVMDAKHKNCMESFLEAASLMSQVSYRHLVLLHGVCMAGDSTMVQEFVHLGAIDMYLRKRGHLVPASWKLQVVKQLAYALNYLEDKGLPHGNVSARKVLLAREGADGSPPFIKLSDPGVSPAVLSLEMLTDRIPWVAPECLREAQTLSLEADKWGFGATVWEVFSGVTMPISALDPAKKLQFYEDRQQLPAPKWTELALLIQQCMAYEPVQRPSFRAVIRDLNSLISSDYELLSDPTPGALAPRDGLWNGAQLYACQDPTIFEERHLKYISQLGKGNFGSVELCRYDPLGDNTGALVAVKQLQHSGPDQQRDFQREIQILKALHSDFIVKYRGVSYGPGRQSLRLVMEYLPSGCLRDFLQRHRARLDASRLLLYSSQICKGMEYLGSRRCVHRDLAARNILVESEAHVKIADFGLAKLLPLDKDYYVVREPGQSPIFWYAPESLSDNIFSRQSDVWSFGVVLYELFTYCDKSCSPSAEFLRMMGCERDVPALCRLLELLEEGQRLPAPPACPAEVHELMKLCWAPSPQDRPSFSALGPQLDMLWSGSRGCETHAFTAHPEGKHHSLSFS

As to `Cc1cc2ncccc2cc1Nc1ncc2c(n1)n([C@H]1CC[C@@](C)(O)CC1)c(=O)n2C` [Example 14, 9-((1s,4s)-4-hydroxy-4-methylcyclohexyl)-7-methyl-2-((7-methylquinolin-6-yl)amino)-7,9-dihydro-8H-purin-8-one], the IC50 at DNAPK was 0.01 µM.
Regarding `Cc1cc2ncccc2cc1Nc1ncc2c(n1)n([C@H]1CC[C@](C)(O)CC1)c(=O)n2C` [Example 15, 9-((1r,4r)-4-hydroxy-4-methylcyclohexyl)-7-methyl-2-((7-methylquinolin-6-yl)amino)-7,9-dihydro-8H-purin-8-one], the IC50 at DNAPK is 0.0158 µM.
On to `Cc1cc2nnccc2cc1Nc1ncc2c(n1)n([C@H]1CC[C@@](C)(O)CC1)c(=O)n2C` [Example 16, 9-((1s,4s)-4-hydroxy-4-methylcyclohexyl)-7-methyl-2-((7-methylcinnolin-6-yl)amino)-7,9-dihydro-8H-purin-8-one], for which the IC50 on DNAPK was 0.0158 µM.
The same measure, in the same setting: with `Cc1cc2nnccc2cc1Nc1ncc2c(n1)n([C@H]1CC[C@](C)(O)CC1)c(=O)n2C` [Example 17, 9-((1r,4r)-4-hydroxy-4-methylcyclohexyl)-7-methyl-2-((7-methylcinnolin-6-yl)amino)-7,9-dihydro-8H-purin-8-one] the figure was 0.1 µM.
On to `Cc1cc2nnccc2cc1Nc1ncc2c(n1)n(C1CCOCC1)c(=O)n2C` [Example 29, 7-methyl-2-((7-methylcinnolin-6-yl)amino)-9-(tetrahydro-2H-pyran-4-yl)-7,9-dihydro-8H-purin-8-one], for which, on TTK, the “TTK enz pIC50” value is 6.4. For the same compound, the “JAK1 enz pIC50” value on JAK1 is below 5. For the same compound, the “JAK2 enz pIC50” value on JAK2 was below 5. Further, the “JAK3 enz pIC50” value on JAK3 is listed as below 5. For the same compound, the “AurA enz pIC50” value at AURKA (Aurora A) is on record as below 5. Further, the “AurB enz pIC50” value on AURKB (Aurora B) is on record as below 5.
Turning to `Cc1cc2ncccc2cc1Nc1ncc2c(n1)n(C1CCOCC1)c(=O)n2C` [Example 30, 7-methyl-2-((7-methylquinolin-6-yl)amino)-9-(tetrahydro-2H-pyran-4-yl)-7,9-dihydro-8H-purin-8-one], on TTK, the “TTK enz pIC50” value was 6.4. On JAK1, the “JAK1 enz pIC50” value was below 5. For the same compound, at JAK2, the “JAK2 enz pIC50” value is given as below 5. Moreover, on JAK3, the “JAK3 enz pIC50” value is reported as below 5. Besides, the “AurA enz pIC50” value at AURKA (Aurora A) was below 5. The “AurB enz pIC50” value on AURKB (Aurora B) was below 5.
For `Cc1cc2ncccc2cc1Nc1ncc2c(n1)n([C@@H]1CCN(C)C1)c(=O)n2C` [Example 41, (R)-7-methyl-9-(1-methylpyrrolidin-3-yl)-2-((7-methylquinolin-6-yl)amino)-7,9-dihydro-8H-purin-8-one], the “TTK enz pIC50” value on TTK is below 5.1. In addition, the “JAK1 enz pIC50” value at JAK1 is below 5. Further, the “JAK2 enz pIC50” value on JAK2 was below 5. Besides, on JAK3, the “JAK3 enz pIC50” value is reported as below 5. In addition, the “AurA enz pIC50” value at AURKA (Aurora A) was below 5. The “AurB enz pIC50” value at AURKB (Aurora B) is given as below 5.
With `Cc1cc2ncccc2cc1Nc1ncc2c(n1)n([C@H]1CCN(C)C1)c(=O)n2C` [Example 42, (S)-7-methyl-9-(1-methylpyrrolidin-3-yl)-2-((7-methylquinolin-6-yl)amino)-7,9-dihydro-8H-purin-8-one], the “TTK enz pIC50” value on TTK was below 5.1. Also, the “JAK1 enz pIC50” value at JAK1 is below 5. Further, the “JAK2 enz pIC50” value at JAK2 was below 5. Moreover, the “JAK3 enz pIC50” value at JAK3 is below 5. The “AurA enz pIC50” value on AURKA (Aurora A) was below 5. Further, on AURKB (Aurora B), the “AurB enz pIC50” value is reported as below 5.
With `Cc1cc2nnccc2cc1Nc1ncc2c(n1)n(C1CCN(C)CC1)c(=O)n2C` [Example 43, 7-methyl-2-((7-methylcinnolin-6-yl)amino)-9-(1-methylpiperidin-4-yl)-7,9-dihydro-8H-purin-8-one], the “TTK enz pIC50” value at TTK is below 5. Moreover, the “JAK1 enz pIC50” value on JAK1 is below 5. On JAK2, the “JAK2 enz pIC50” value is listed as below 5. For the same compound, the “JAK3 enz pIC50” value on JAK3 is reported as below 5. For the same compound, on AURKA (Aurora A), the “AurA enz pIC50” value is below 5. Moreover, the “AurB enz pIC50” value on AURKB (Aurora B) is below 5.
As for `Cc1cc2ncccc2cc1Nc1ncc2c(n1)n(C1CCN(C)CC1)c(=O)n2C` [Example 44, 7-methyl-9-(1-methylpiperidin-4-yl)-2-((7-methylquinolin-6-yl)amino)-7,9-dihydro-8H-purin-8-one], the Vd was found to be 3.4 L/kg in “Discrete PK Rat” and 7.8 L/kg in “Discrete PK Dog” (plasma).
`Cc1cc2ncccc2cc1Nc1ncc2c(n1)n([C@@H]1CNC[C@H]1F)c(=O)n2C` [Example 52, 9-((3R,4R)-4-fluoropyrrolidin-3-yl)-7-methyl-2-((7-methylquinolin-6-yl)amino)-7,9-dihydro-8H-purin-8-one]: the Vd in the series “Discrete PK Rat” came out at 1.65 L/kg; in “Discrete PK Dog” (in vivo) it was 5.4 L/kg.
